Legend:
[1] = target: AAK1 (amino acids T27-A365) (Homo sapiens (Human), UniProt Q2M2I8); assay: AAK1 pSENs assay; assay type: biochemical; settings: ratio of AAK1 pSENs activity to GAK pSENs activity
Protocol: (§1) The recombinant proteins were independently expressed in Esherichia coli BL21(DE3) cells cultured in Luria-Bertani (LB) medium until OD600 reached 0.6-0.8, then cooled to 15° C., and supplemented with 0.5 mM isopropyl 1-thio-D-galactopyranoside (IPTG) induce protein expression 16 h. Cells were harvested and resuspended in lysis buffer (50 mM HEPES pH 7.5, 500 mM NaCl, 5 mM imidazole, 5% glycerol, 0.5 mM Tris (2-carboxyethyl) phosphine (TCEP), cOmplete Protease Inhibitor Tablet (Roche)) and lysed by microfluidics high pressure homogenizer (UH-06, Union-Biotech). Proteins were purified using Ni-Affinity chromatography (His FF column, Bestchrom) and eluted stepwise in binding buffer with 20-300 mM imidazole. Removal of the hexahistidine tag was performed at 4° C. overnight using recombinant TEV protease and reacted with BirA to obtain the corresponding biotinylated-AAK1. BIKE or GAK proteins. Further separated in the reverse Strep column (Strep-Tactin® XT, IBA). The Biotin elution sample was collected containing untagged biotinylated protein was then purified by Ion-exchange chromatography (Mono Q 10/100 GL, Cytiva) and Size-exclusion chromatography (HiLoad 16/600 Superdex 200 pg, Cytiva). The pure protein was stored in a storage buffer 50 mM HEPES (pH 7.5), 300 mM NaCl, 5% glycerol at −80° C. Protein were characterized by SDS-PAGE. LC-MS and aSEC.
This example describes one illustrative method for determining the IC50 of the compounds of the present invention against AAK1 (amino acids T27-A365). AAK1 protein was dissolved at 20 nM in 1× enzyme solution (50 mM HEPES pH7.5, 10 mM MgCl2, 1 mM DTT, 1% glycerol, 0.5 mM EGTA, 0.01% Briji35, 0.02% BSA) and 12.5 ul was incubated with 250 nl DMSO or 250 nl compound in DMSO at 25° C. for 15 min. The reaction was started by addition of 12.5 ul of 30 uM AQT0759 (Assayquant, CSKS-AQT0759B) and 70 uM ATP which were diluted in 1× substrate dilution buffer (50 mM HEPES pH7.5, 10 mM MgCl2, 1 mM DTT, 1% glycerol, 0.5 mM EGTA, 0.01% Briji35).

[2] = target: GAK (amino acids Q25-N335) (Homo sapiens (Human), UniProt O14976); assay: GAK pSENs assay; assay type: biochemical
Chain of GAK (amino acids Q25-N335) (O14976 25-335): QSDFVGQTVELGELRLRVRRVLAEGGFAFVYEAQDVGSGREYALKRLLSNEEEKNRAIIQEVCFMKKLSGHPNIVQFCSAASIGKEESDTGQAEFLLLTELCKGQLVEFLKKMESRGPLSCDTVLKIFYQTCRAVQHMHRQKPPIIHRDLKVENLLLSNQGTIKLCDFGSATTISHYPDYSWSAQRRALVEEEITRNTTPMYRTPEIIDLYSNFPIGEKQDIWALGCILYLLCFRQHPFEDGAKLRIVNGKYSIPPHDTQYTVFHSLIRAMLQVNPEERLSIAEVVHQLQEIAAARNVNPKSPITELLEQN
Protocol: as §1
This example describes one illustrative method for determining the IC50 of the compounds of the present invention against GAK (amino acids Q25-N335).

Chain of AAK1 (amino acids T27-A365) (Q2M2I8 27-365): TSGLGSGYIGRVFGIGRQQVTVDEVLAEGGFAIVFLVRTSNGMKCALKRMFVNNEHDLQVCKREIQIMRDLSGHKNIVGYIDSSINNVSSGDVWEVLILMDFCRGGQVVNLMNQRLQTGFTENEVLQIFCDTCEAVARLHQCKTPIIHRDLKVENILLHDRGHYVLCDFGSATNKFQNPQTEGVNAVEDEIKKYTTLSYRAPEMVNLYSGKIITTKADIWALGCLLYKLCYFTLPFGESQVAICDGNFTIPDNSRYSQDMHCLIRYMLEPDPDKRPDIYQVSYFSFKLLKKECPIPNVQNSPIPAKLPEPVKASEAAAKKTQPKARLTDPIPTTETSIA

| AAK1:GAK pSENs Selectivity [1] | IC50 [2] [nM] | Structure (SMILES) |
| --- | --- | --- |
| A (A: ≤0.015) | > 1500 | [2H]C([2H])([2H])N1C[C@@H](OC(=O)N2CCN(c3nc4c(-c5cccnc5OC5CC5)cnn4cc3F)CC2)CC1=O [Compound I-116, [(3S)-5-oxo-1-(trideuteriomethyl)pyrrolidin-3-yl]4-[3-[2-(cyclopropoxy)-3-pyridyl]-6-fluoro-pyrazolo[1,5-a]pyrimidin-5-yl]piperazine-1-carboxylate] |
| B (B: 0.016-0.075) | > 1500 | CN1C[C@@H](OC(=O)N2CCN(c3nc4c(-c5cccnc5OC5CCOC5)cnn4cc3F)CC2)CC1=O (stereo partly drawn) [Compound I-120, [(3S)-1-methyl-5-oxo-pyrrolidin-3-yl]4-[6-fluoro-3-(2-tetrahydrofuran-3-yloxy-3-pyridyl)pyrazolo[1,5-a]pyrimidin-5-yl]piperazine-1-carboxylate] |
| A (A: ≤0.015) | > 1500 | C[C@@H]1CN(c2ccn3ncc(-c4cccnc4OC4CC4)c3n2)CCN1C(=O)O[C@@H]1CNC(=O)C1 [Compound I-39, [(3S)-5-oxopyrrolidin-3-yl]-(2R)-4-[3-[2-(cyclopropoxy)-3-pyridyl]pyrazolo[1,5-a]pyrimidin-5-yl]-2-methyl-piperazine-1-carboxylate] |
| A (A: ≤0.015) | > 1500 | CN1C[C@@H](OC(=O)N2CCN(c3ccn4ncc(-c5cc(F)cnc5OC5CC5)c4n3)CC2)CC1=O [Compound I-86] |
| A (A: ≤0.015) | > 1500 | CC(C)Oc1ncccc1-c1cnn2ccc(N3CCN(C(=O)O[C@@H]4CNC(=O)C4)CC3)nc12 [Compound I-26, [(3S)-5-Oxopyrrolidin-3-yl]-4-[3-(2-isopropoxy-3-pyridyl)pyrazolo[1,5-a]pyrimidin-5-yl]piperazine-1-carboxylate] |
| A (A: ≤0.015) | > 1500 | [2H]C([2H])([2H])N1C[C@@H](OC(=O)N2CCN(c3nc4c(-c5cc(F)cnc5OC5CC5)cnn4cc3F)CC2)CC1=O [Compound I-118, [(3S)-5-oxo-1-(trideuteriomethyl)pyrrolidin-3-yl]4-[3-[2-(cyclopropoxy)-5-fluoro-3-pyridyl]-6-fluoro-pyrazolo[1,5-a]pyrimidin-5-yl]piperazine-1-carboxylate] |
| A (A: ≤0.015) | > 1500 | C[C@@]1(OC(=O)N2CCN(c3ccn4ncc(-c5cccnc5OC5CC5)c4n3)CC2)CCN(CCO)C1 [Compound I-52, [(3R)-1-(2-hydroxyethyl)-3-methyl-pyrrolidin-3-yl]-4-[3-[2-(cyclopropoxy)-3-pyridyl]pyrazolo[1,5-a]pyrimidin-5-yl]piperazine-1-carboxylate] |
| A (A: ≤0.015) | > 1500 | COC(=O)N1CC(Oc2ncccc2-c2cnn3ccc(N4CCN(C(=O)O[C@@H]5CC(=O)N(C)C5)CC4)nc23)C1 [Compound I-83, [(3R)-1-methyl-5-oxo-pyrrolidin-3-yl]4-[3-[2-(1-methoxycarbonylazetidin-3-yl)oxy-3-pyridyl]pyrazolo[1,5-a]pyrimidin-5-yl]piperazine-1-carboxylate] |
| A (A: ≤0.015) | > 1500 | COC(=O)N1CC(Oc2ncccc2-c2cnn3ccc(NCCN(C)C(=O)OC(C)(C)C)nc23)C1 [Compound I-64] |
| A (A: ≤0.015) | > 1500 | CC(=O)N1CC(Oc2ncccc2-c2cnn3ccc(NCCN(C)C(=O)OC(C)(C)C)nc23)C1 [Compound I-63, Tert-butyl (2-((3-(2-((1-acetylazetidin-3-yl)oxy)pyridin-3-yl)pyrazolo[1,5-a]pyrimidin-5-yl)amino)ethyl)(methyl)carbamate] |
| A (A: ≤0.015) | > 1500 | COCCN1C[C@@H](OC(=O)N2CCN(c3ccn4ncc(-c5cc(F)cnc5OC5CC5)c4n3)CC2)CC1=O [Compound I-89] |
| A (A: ≤0.015) | > 1500 | COc1ccccc1-c1cnn2ccc(N3CCN(C(=O)O[C@H]4CO[C@H]5OCC[C@H]54)CC3)nc12 [Compound I-69, (3R,3aS,6aR)-hexahydrofuro[2,3-b]furan-3-yl 4-(3-(2-methoxyphenyl)pyrazolo[1,5-a]pyrimidin-5-yl)piperazine-1-carboxylate] |
| A (A: ≤0.015) | > 1500 | COC(=O)N1CC(Oc2ncccc2-c2cnn3ccc(N4CCN(C(=O)O[C@@H]5CNC(=O)C5)CC4)nc23)C1 [Compound I-58, [(3S)-5-oxopyrrolidin-3-yl]-4-[3-[2-(1-methoxycarbonylazetidin-3-yl)oxy-3-pyridyl]pyrazolo[1,5-a]pyrimidin-5-yl]piperazine-1-carboxylate] |
| A (A: ≤0.015) | > 1500 | CN1C[C@@H](OC(=O)N2CCN(c3nc4c(-c5cccnc5OC5CCOCC5)cnn4cc3F)CC2)CC1=O [Compound I-122] |
| B (B: 0.016-0.075) | > 1500 | CC(C)N1C[C@@H](OC(=O)N2CCN(c3ccn4ncc(-c5cccnc5OC5CC5)c4n3)CC2)CC1=O [Compound I-114, [(3S)-1-isopropyl-5-oxo-pyrrolidin-3-yl]-4-[3-[2-(cyclopropoxy)-3-pyridyl]pyrazolo[1,5-a]pyrimidin-5-yl]piperazine-1-carboxylate] |
| A (A: ≤0.015) | > 1500 | CN1C[C@@H](OC(=O)N2CCN(c3nc4c(-c5cccnc5OC5CC5)cnn4cc3F)CC2)CC1=O [Compound I-109, [(3S)-1-methyl-5-oxo-pyrrolidin-3-yl]4-[3-[2-(cyclopropoxy)-3-pyridyl]-6-fluoro-pyrazolo[1,5-a]pyrimidin-5-yl]piperazine-1-carboxylate] |

| Structure (SMILES) | AAK1:GAK pSENs Selectivity [1] | IC50 [2] [nM] |
| --- | --- | --- |
| CC(C)(C)OC(=O)N1CC(Oc2ncccc2-c2cnn3ccc(N4CCN(C(=O)O[C@@H]5CNC(=O)C5)CC4)nc23)C1 [Compound I-42, [(3S)-5-Oxopyrrolidin-3-yl]4-[3-[2-(1-tert-butoxycarbonylazetidin-3-yl)oxy-3-pyridyl]pyrazolo[1,5-a]pyrimidin-5-yl]piperazine-1-carboxylate] | A (A: ≤0.015) | > 1500 |
| CC1(OC(=O)N2CCN(c3ccn4ncc(-c5cccnc5OC5CC5)c4n3)CC2)COC1 [Compound I-2, (3-methyloxetan-3-yl)-4-[3-[2-(cyclopropoxy)-3-pyridyl]pyrazolo[1,5-a]pyrimidin-5-yl]piperazine-1-carboxylate] | A (A: ≤0.015) | > 1500 |
| COC(=O)N1CC(Oc2ncccc2-c2cnn3ccc(N4CCN(C(=O)O[C@@H]5CC(=O)N(CCO)C5)CC4)nc23)C1 [Compound I-84, [(3R)-1-(2-hydroxyethyl)-5-oxo-pyrrolidin-3-yl]4-[3-[2-(1-methoxycarbonylazetidin-3-yl)oxy-3-pyridyl]pyrazolo[1,5-a]pyrimidin-5-yl]piperazine-1-carboxylate] | B (B: 0.016-0.075) | > 1500 |
| CC(C)(C)OC(=O)N1CCC(N2C[C@@H](OC(=O)N3CCN(c4ccn5ncc(-c6cccnc6OC6CC6)c5n4)CC3)CC2=O)CC1 [Compound I-30, [(3S)-1-(1-tert-Butoxycarbonyl-4-piperidyl)-5-oxo-pyrrolidin-3-yl]4-[3-[2-(cyclopropoxy)-3-pyridyl]pyrazolo[1,5-a]pyrimidin-5-yl]piperazine-1-carboxylate] | A (A: ≤0.015) | > 1500 |
